The source of these data is patent US20260317299A1, “PIKFYVE PROTEIN KINASE DEGRADATION AGENT AND USE THEREOF” (Shanghai Institute of Organic Chemistry, Chinese Academy of …, priority 2023, published 2026).

Each structure is given as a SMILES string.

T1 sequence (Q9Y2I7 whole entry): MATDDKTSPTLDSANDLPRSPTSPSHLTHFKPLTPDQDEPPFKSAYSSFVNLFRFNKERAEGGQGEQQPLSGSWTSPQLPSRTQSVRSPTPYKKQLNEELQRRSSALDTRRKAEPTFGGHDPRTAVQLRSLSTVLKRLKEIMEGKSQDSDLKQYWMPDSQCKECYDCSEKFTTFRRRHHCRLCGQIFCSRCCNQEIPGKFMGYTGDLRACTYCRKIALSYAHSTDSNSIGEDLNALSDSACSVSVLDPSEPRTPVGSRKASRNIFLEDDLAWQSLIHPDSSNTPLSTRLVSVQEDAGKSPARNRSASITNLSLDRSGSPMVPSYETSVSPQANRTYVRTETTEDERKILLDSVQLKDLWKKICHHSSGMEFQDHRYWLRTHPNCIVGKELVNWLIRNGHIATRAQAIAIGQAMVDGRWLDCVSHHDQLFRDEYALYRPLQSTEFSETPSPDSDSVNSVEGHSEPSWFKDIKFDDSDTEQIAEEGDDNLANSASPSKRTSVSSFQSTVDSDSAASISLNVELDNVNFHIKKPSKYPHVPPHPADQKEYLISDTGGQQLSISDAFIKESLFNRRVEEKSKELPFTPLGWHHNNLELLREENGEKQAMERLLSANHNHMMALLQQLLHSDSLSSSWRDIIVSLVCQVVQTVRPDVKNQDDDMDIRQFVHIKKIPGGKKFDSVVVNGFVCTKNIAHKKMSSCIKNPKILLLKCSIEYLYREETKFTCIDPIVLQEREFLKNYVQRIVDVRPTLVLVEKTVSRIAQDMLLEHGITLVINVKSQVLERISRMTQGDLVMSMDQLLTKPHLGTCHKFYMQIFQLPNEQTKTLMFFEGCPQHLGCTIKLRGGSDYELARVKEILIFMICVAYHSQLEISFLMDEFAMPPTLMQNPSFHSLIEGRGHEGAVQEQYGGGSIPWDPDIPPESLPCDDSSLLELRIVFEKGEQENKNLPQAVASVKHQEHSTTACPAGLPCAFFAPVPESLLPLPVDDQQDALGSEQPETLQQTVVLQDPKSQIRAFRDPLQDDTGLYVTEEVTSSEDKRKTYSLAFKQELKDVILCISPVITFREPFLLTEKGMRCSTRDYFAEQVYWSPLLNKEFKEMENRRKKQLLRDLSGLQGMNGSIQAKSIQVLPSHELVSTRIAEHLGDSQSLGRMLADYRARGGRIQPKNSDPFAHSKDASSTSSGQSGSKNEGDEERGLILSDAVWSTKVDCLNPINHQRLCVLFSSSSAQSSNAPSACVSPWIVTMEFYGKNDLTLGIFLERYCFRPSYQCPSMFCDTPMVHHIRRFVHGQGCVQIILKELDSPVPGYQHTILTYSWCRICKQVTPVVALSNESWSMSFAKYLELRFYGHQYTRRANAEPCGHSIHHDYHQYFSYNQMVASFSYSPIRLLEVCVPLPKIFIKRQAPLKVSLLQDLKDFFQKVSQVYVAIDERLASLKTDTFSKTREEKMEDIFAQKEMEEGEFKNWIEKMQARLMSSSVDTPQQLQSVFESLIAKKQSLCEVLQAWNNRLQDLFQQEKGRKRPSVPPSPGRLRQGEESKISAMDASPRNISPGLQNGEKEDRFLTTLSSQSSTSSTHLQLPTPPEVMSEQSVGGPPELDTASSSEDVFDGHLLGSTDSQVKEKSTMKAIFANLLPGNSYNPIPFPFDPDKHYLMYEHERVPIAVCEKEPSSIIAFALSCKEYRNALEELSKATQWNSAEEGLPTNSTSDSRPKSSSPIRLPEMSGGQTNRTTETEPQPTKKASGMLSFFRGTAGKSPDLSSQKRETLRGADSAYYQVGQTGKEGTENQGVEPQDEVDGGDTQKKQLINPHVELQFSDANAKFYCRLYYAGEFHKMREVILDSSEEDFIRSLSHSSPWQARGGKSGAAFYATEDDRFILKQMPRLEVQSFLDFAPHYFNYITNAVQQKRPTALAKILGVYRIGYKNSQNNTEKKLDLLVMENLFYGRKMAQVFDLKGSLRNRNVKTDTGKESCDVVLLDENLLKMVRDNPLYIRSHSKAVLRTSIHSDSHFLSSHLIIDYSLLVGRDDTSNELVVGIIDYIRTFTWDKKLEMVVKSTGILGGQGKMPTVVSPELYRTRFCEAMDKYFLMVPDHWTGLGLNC

This test concerns the target T1, PIKfyve (Homo sapiens, UniProt Q9Y2I7).
T1 construct: endogenous in cells; host or cells: VCaP
Kind of test: Degradation of PIKfyve proteins in VCaP tumor cells (24 h, Western blot). Format: cell-based. As to conditions: 37° C., compared with DMSO control, WB, read-out: DC50 (concentration that achieves 50% degradation activity). The procedure, abridged: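 VCaP cells (5×10^6 cells/ml) treated with a range of compound concentrations at 37° C for 24 h, then lysed in SDS buffer. PIKfyve level measured by Western blot with GAPDH as loading control and ECL detection. DC50 is the concentration giving 50% degradation relative to DMSO control.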
A general note: Immunoblotting shows a protein as a band on a membrane.
For the compound `Cc1cccc(/C=N/Nc2cc(N3CCOCC3)nc(OCCc3ccc(NC(=O)CCCCC(=O)Nc4ccc5c(c4)CN(C4CCC(=O)NC4=O)C5=O)cc3)n2)c1` (stereo not shown) [Example 25, (E)-N^1-(2-(2,6-dioxopiperidin-3-yl)-1-oxoisoindolin-5-yl)-N^6-(4-(2-((4-(2-(3-methylbenzylidene)hydrazino)-6-morpholinopyrimidin-2-yl)oxy)ethyl)phenyl)adipamide], the DC50 is 100 to 10000 nM.

`Cc1cccc(-c2ccn(-c3cc(N4CCOCC4)nc(OCCc4ccc(N5CCN(C(=O)C[C@H](NC(=O)[C@@H]6C[C@@H](O)CN6C(=O)[C@@H](NC(=O)C6(F)CC6)C(C)(C)C)c6ccc(-c7scnc7C)cc6)CC5)cc4)n3)n2)c1` [Example 75, (2S,4R)-1-((S)-2-(1-fluorocyclopropane-1-carboxamido)-3,3-dimethylbutanoyl)-4-hydroxy-N—((S)-1-(4-(4-methylthiazol-5-yl)phenyl)-3-(4-(4-(2-((4-morpholino-6-(3-(m-tolyl)-1H-pyrazol-1-yl)pyrimidin-2-yl)oxy)ethyl)phenyl)piperazin-1-yl)-3-oxopropyl)pyrrolidine-2-carboxamide]: the DC50 lay in the range of 1 to 100 nM.

As for `Cc1cccc(-c2ccn(-c3cc(N4CCOCC4)nc(OCCc4ccc(NC(=O)NC5CN(C(=O)CC[C@H](NC(=O)[C@@H]6C[C@@H](O)CN6C(=O)[C@@H](NC(=O)C6(F)CC6)C(C)(C)C)c6ccc(-c7scnc7C)cc6)C5)cc4)n3)n2)c1` [Example 74, (2S,4R)-1-((S)-2-(1-fluorocyclopropane-1-carboxamido)-3,3-dimethylbutanoyl)-4-hydroxy-N—((S)-1-(4-(4-methylthiazol-5-yl)phenyl)-4-(3-(3-(4-(2-((4-morpholino-6-(3-(m-tolyl)-1H-pyrazol-1-yl)pyrimidin-2-yl)oxy)ethyl)phenyl)ureido)azetidin-1-yl)-4-oxobutyl) pyrrolidine-2-carboxamide], the DC50 was in the range of 1 to 100 nM.

Regarding `Cc1cccc(/C=N/Nc2cc(N3CCOCC3)nc(OCCc3ccc(NC(=O)CCCCCNC(=O)CSC(C)(C)[C@H](NC(=O)C4(F)CC4)C(=O)N4C[C@H](O)C[C@H]4C(=O)NCc4ccc(-c5scnc5C)cc4)cc3)n2)c1` [Example 60, (2S,4R)-1-((R)-2-(1-fluorocyclopropane-1-carboxamido)-3-methyl-3-((2-((6-((4-(2-((4-(2-((E)-3-methylbenzylidene)hydrazino)-6-morpholinopyrimidin-2-yl)oxy)ethyl)phenyl)amino)-6-oxohexyl)amino)-2-oxoethyl)thio)butanoyl)-4-hydroxy-N-(4-(4-methylthiazol-5-yl)benzyl)pyrrolidine-2-carboxamide], the DC50 lay in the range of 100 to 10000 nM.

Consider `Cc1cccc(-c2ccn(-c3cc(N4CCOCC4)nc(OC4CCN(c5ccc(NC(=O)NC6CN(c7cc8c(cc7F)C(=O)N(C7CCC(=O)NC7=O)C8=O)C6)cc5)CC4)n3)n2)c1` (stereo not shown) [Example 93, 1-(1-(2-(2,6-Dioxopiperidin-3-yl)-6-fluoro-1,3-dioxoisoindolin-5-yl)azetidin-3-yl)-3-(4-(4-((4-morpholino-6-(3-(m-tolyl)-1H-pyrazol-1-yl)pyrimidin-2-yl)oxy)piperidin-1-yl)phenyl)urea], for which the DC50 was 100 to 10000 nM.

For `Cc1cccc(/C=N/Nc2cc(N3CCOCC3)nc(OCCc3ccc(NC(=O)CCCCCCCCC(=O)Nc4ccc5c(c4)CN(C4CCC(=O)NC4=O)C5=O)cc3)n2)c1` (stereo not shown) [Example 27, (E)-N^1-(2-(2,6-dioxopiperidin-3-yl)-1-oxoisoindolin-5-yl)-N^10-(4-(2-((4-(2-(3-methylbenzylidene)hydrazino)-6-morpholinopyrimidin-2-yl)oxy)ethyl)phenyl)decanediamide], the DC50 was 1 to 100 nM.

In the case of `Cc1cccc(-c2ccn(-c3cc(N4CCOCC4)nc(OC4CCN(c5ccc(CN6CCN(c7cc8c(cc7F)C(=O)N(C7CCC(=O)NC7=O)C8=O)CC6)cc5)CC4)n3)n2)c1` (stereo not shown) [Example 95, 2-(2,6-Dioxopiperidin-3-yl)-5-fluoro-6-(4-(4-(4-((4-morpholino-6-(3-(m-tolyl)-1H-pyrazol-1-yl)pyrimidin-2-yl)oxy)piperidin-1-yl)benzyl)piperazin-1-yl)isoindoline-1,3-dione], the DC50 fell in the range of 100 to 10000 nM.

Take `Cc1cccc(/C=N/Nc2cc(N3CCOCC3)nc(OCCc3ccc(NC(=O)CCCNC(=O)COc4cc(-c5scnc5C)ccc4CNC(=O)[C@@H]4C[C@@H](O)CN4C(=O)[C@@H](NC(=O)C4(F)CC4)C(C)(C)C)cc3)n2)c1` [Example 55, (2S,4R)-1-((S)-2-(1-fluorocyclopropane-1-carboxamido)-3,3-dimethylbutanoyl)-4-hydroxy-N-(2-(2-((4-((4-(2-((4-(2-((E)-3-methylbenzylidene)hydrazino)-6-morpholinopyrimidin-2-yl)oxy)ethyl)phenyl)amino)-4-oxobutyl)amino)-2-oxoethoxy)-4-(4-methylthiazol-5-yl)benzyl)pyrrolidine-2-carboxamide]: the DC50 is 1 to 100 nM.

Consider `Cc1cccc(-c2ccn(-c3cc(N4CCOCC4)nc(OCCc4ccc(C#CC5CCN(c6cc7c(cc6F)C(=O)N(C6CCC(=O)NC6=O)C7=O)CC5)cc4)n3)n2)c1` (stereo not shown) [Example 90, 2-(2,6-Dioxopiperidin-3-yl)-5-fluoro-6-(4-((4-(2-((4-morpholino-6-(3-(m-tolyl)-1H-pyrazol-1-yl)pyrimidin-2-yl)oxy)ethyl)phenyl)ethynyl)piperidin-1-yl)isoindoline-1,3-dione], for which the DC50 is 100 to 10000 nM.

For the compound `Cc1cccc(/C=N/Nc2cc(N3CCOCC3)nc(OCCc3ccc(NC(=O)CCCCCCC(=O)Nc4cccc5c4CN(C4CCC(=O)NC4=O)C5=O)cc3)n2)c1` (stereo not shown) [Example 21, (E)-N^1-(2-(2,6-dioxopiperidin-3-yl)-1-oxoisoindolin-4-yl)-N^8-(4-(2-((4-(2-(3-methylbenzylidene)hydrazino)-6-morpholinopyrimidin-2-yl)oxy)ethyl)phenyl)octanediamide], the DC50 was 1 to 100 nM.

For `Cc1cccc(/C=N/Nc2cc(N3CCOCC3)nc(OCCc3ccc(NC(=O)CCCC(=O)N[C@H](C(=O)N4C[C@H](O)C[C@H]4C(=O)N[C@@H](C)c4ccc(-c5scnc5C)cc4)C(C)(C)C)cc3)n2)c1` [Example 45], the DC50 lay within 1 to 100 nM.

As to `Cc1cccc(-c2ccn(-c3cc(N4CCOCC4)nc(OC4CCN(c5ccc(N6CCN(C(=O)C[C@H](NC(=O)[C@@H]7C[C@@H](O)CN7C(=O)[C@@H](NC(=O)C7(F)CC7)C(C)(C)C)c7ccc(-c8scnc8C)cc7)CC6)cc5)CC4)n3)n2)c1` [Example 84, (2S,4R)-1-((S)-2-(1-fluorocyclopropane-1-carboxamido)-3,3-dimethylbutanoyl)-4-hydroxy-N—((S)-1-(4-(4-methylthiazol-5-yl)phenyl)-3-(4-(4-(4-((4-morpholino-6-(3-(m-tolyl)-1H-pyrazol-1-yl)pyrimidin-2-yl)oxy)piperidin-1-yl)phenyl)piperazin-1-yl)-3-oxopropyl) pyrrolidine-2-carboxamide], the DC50 fell in the range of 1 to 100 nM.

For `Cc1cccc(/C=N/Nc2cc(N3CCOCC3)nc(OCCc3ccc(NC(=O)CCCCCCCCC(=O)Nc4ccc5c(c4)C(=O)N(C4CCC(=O)NC4=O)C5)cc3)n2)c1` (stereo not shown) [Example 31, (E)-N^1-(2-(2,6-dioxopiperidin-3-yl)-3-oxoisoindol-5-yl)-N^10-(4-(2-((4-(2-(3-methylbenzylidene)hydrazino)-6-morpholinopyrimidin-2-yl)oxy)ethyl)phenyl)decanediamide], the DC50 lay within 100 to 10000 nM.

With `Cc1cccc(/C=N/Nc2cc(N3CCOCC3)nc(OCCc3ccc(NC(=O)CCCCCCCC(=O)N[C@H](C(=O)N4C[C@H](O)C[C@H]4C(=O)NCc4ccc(-c5scnc5C)cc4)C(C)(C)C)cc3)n2)c1` [Example 43, N^1—((S)-1-((2S,4R)-4-hydroxy-2-((4-(4-methylthiazol-5-yl)benzyl)carbamoyl)pyrrolidine-1-yl)-3,3-dimethyl-1-oxobutan-2-yl)-N^9-(4-(2-((4-(2-((E)-3-methylbenzylidene) hydrazino)-6-morpholinopyrimidin-2-yl)oxy)ethyl)phenyl)nonediamide], the DC50 lay within 1 to 100 nM.

As to `Cc1cccc(/C=N/Nc2cc(N3CCOCC3)nc(OCCc3ccc(NC(=O)CCCCCCCCCC(=O)N[C@H](C(=O)N4C[C@H](O)C[C@H]4C(=O)NCc4ccc(-c5scnc5C)cc4)C(C)(C)C)cc3)n2)c1` [Example 44, N^1—((S)-1-((2S,4R)-4-hydroxy-2-((4-(4-methylthiazol-5-yl)benzyl)carbamoyl)pyrrolidine-1-yl)-3,3-dimethyl-1-oxobutan-2-yl)-N^11-(4-(2-((4-(2-((E)-3-methylbenzylidene) hydrazino)-6-morpholinopyrimidin-2-yl)oxy)ethyl)phenyl)undecanediamide], the DC50 was 1 to 100 nM.

`Cc1cccc(/C=N/Nc2cc(N3CCOCC3)nc(OCCc3ccc(NC(=O)CCCNC(=O)CC[C@H](NC(=O)[C@@H]4C[C@@H](O)CN4C(=O)[C@@H](NC(=O)C4(F)CC4)C(C)(C)C)c4ccc(-c5scnc5C)cc4)cc3)n2)c1` [Example 51, (2S,4R)-1-((S)-2-(1-fluorocyclopropane-1-carboxamido)-3,3-dimethylbutanoyl)-4-hydroxy-N—((S)-4-((4-((4-(2-((4-(2-((E)-3-methylbenzylidene)hydrazino)-6-morpholinopyrimidin-2-yl)oxy)ethyl)phenyl)amino)-4-oxobutyl)amino)-1-(4-(4-methylthiazol-5-yl)phenyl)4-oxobutyl)pyrrolidine-2-carboxamide]: the DC50 was 1 to 100 nM.
